Reference: patent US8633182B2, “Indanyloxyphenylcyclopropanecarboxylic acids” (Boehringer Ingelheim International GmbH, priority 2012, dated 2014)
pEC50: −log10 of the molar value.

These compounds were tested against human GPR40 receptor (Homo sapiens, UniProt O14842) (assay: IP1 accumulation measurements using the IPOne assay system in 1321N1 cells stably expressing human GPR40 receptor). Conditions: IP1 accumulation (HTRF), 1321N1 cells stably expressing human GPR40, 1 hour stimulation at 37° C.
Format: cell-based
Description: IP1 accumulation measurements using the IPOne assay system—1321N1 cells stably expressing human GPR40 receptor (Euroscreen, Belgium) are seeded 24 h before the assay in black clear-bottom collagen-coated or white 384-well plates in culture medium containing 10% FCS, 1% Na-Pyruvate and 400 μg/mL G418. IP1 is assayed according to the Manufacturer's description (Cisbio Bioassays, France). In brief, the assay is started by substitution of the culture medium by stimulation buffer (Hepes 10 mM, CaCl2 1 mM, MgCl2 0.5 mM, KCl 4.2 mM, NaCl 146 mM and glucose 5.5 mM, pH 7.4) without LiCl or with […]. Cells are stimulated for 1 hour at 37° C., 5 or 10% CO2 by addition of the compounds that are diluted in stimulation buffer containing LiCl yielding a final LiCl concentration of 50 mM. Assays are stopped by adding HTRF-conjugates (IP1-d2 and Anti-IP1 cryptate Tb) and lysis buffer, provided by the manufacturer. After an incubation time of 1 hour at room temperature plates are measured using an EnVision™, Perkin Elmer. The obtained fluorescence ratios at […] are then used to calculate the pEC50 values using GraphPad Prism 5 (Graphpad Software Inc, USA) or Assay Explorer 3.3 Software (Accelrys, Inc.) by interpolation using an IP1 reference curve and subsequent sigmoidal curve fitting allowing for a variable hill slope.

Sequence of human GPR40 receptor (O14842 whole entry): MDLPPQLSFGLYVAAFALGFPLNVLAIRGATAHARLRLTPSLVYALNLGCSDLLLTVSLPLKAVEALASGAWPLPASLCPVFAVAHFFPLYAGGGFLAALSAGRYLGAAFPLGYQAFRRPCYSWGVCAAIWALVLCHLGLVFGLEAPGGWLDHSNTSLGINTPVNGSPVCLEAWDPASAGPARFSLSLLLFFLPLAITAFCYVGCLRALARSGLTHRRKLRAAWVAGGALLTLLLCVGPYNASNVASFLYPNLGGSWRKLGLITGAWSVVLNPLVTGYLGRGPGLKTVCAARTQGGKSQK

Question: `Cc1cc(OC2CCOCC2)cc(C)c1-c1c(C#N)ccc2c1CC[C@H]2Oc1ccc([C@H]2C[C@@H]2C(=O)O)cc1` [Example 38, (1S,2S)-2-(4-{(R)-5-Cyano-4-[2,6-dimethyl-4-(tetrahydro-pyran-4-yloxy)-phenyl]-indan-1-yloxy}-phenyl)-cyclopropane-carboxylic acid] was tested. Which pEC50 did it give?
Answer: 7.40

Question: `Cc1cc(OCC2(O)CCS(=O)(=O)CC2)cc(C)c1-c1ccc(F)c2c1CC[C@H]2Oc1ccc([C@H]2C[C@@H]2C(=O)O)cc1` [Example 39] was tested. Which pEC50 did it give?
Answer: 8.22

Question: `Cn1ncc2cccc(-c3ccc(F)c4c3CC[C@H]4Oc3ccc([C@H]4C[C@@H]4C(=O)O)cc3)c21` [Example 40] was tested. Which pEC50 did it give?
Answer: 8.70

Question: With `Cc1cc(-c2nc(C)n(CC(C)(C)O)n2)cc(C)c1-c1ccc(F)c2c1CC[C@H]2Oc1ccc([C@H]2C[C@@H]2C(=O)O)cc1` [Example 41, (1S,2S)-2-[4-((R)-7-Fluoro-4-{4-[1-(2-hydroxy-2-methyl-propyl)-5-methyl-1H-[1,2,4]triazol-3-yl]-2,6-dimethyl-phenyl}-indan-1-yloxy)-phenyl]-cyclopropanecarboxylic acid] as the compound, how does the pEC50 read?
Answer: 8.70

Question: `Cc1cc(-c2nc(C)n(C)n2)cc(C)c1-c1ccc(F)c2c1CC[C@H]2Oc1ccc([C@H]2C[C@@H]2C(=O)O)cc1` [Example 42, (1S,2S)-2-(4-{(R)-4-[4-(1,5-Dimethyl-1H-[1,2,4]triazol-3-yl)-2,6-dimethyl-phenyl]-7-fluoro-indan-1-yloxy}-phenyl)-cyclopropanecarboxylic acid] was tested. Which pEC50 did it give?
Answer: 9.00

Question: How did the pEC50 turn out when `Cc1cc(-c2nnn(CC(C)(C)O)n2)cc(C)c1-c1ccc(F)c2c1CC[C@H]2Oc1ccc([C@H]2C[C@@H]2C(=O)O)cc1` [Example 43, (1S,2S)-2-[4-((R)-7-Fluoro-4-{4-[2-(2-hydroxy-2-methyl-propyl)-2H-tetrazol-5-yl]-2,6-dimethyl-phenyl}-indan-1-yloxy)-phenyl]-cyclopropanecarboxylic acid] was run?
Answer: 8.52

Question: `Cc1cc(-c2nnnn2C)cc(C)c1-c1ccc(F)c2c1CC[C@H]2Oc1ccc([C@H]2C[C@@H]2C(=O)O)cc1` [Example 44] was tested. Which pEC50 did it give?
Answer: 7.92

Question: How did the pEC50 turn out when `Cc1cc(-c2nnn(C)n2)cc(C)c1-c1ccc(F)c2c1CC[C@H]2Oc1ccc([C@H]2C[C@@H]2C(=O)O)cc1` [Example 45] was run?
Answer: 8.70

Question: With `O=C(O)[C@H]1C[C@@H]1c1ccc(O[C@@H]2CCc3c(-c4cncc5ccccc45)ccc(F)c32)cc1` [Example 46, (1S,2S)-2-(4-((1R)-7-fluoro-4-(isoquinolin-4-yl)-2,3-dihydro-1H-inden-1-yloxy)phenyl)cyclo-propanecarboxylic acid] as the compound, how does the pEC50 read?
Answer: 8.22

Question: `N#Cc1sccc1-c1ccc(F)c2c1CC[C@H]2Oc1ccc([C@H]2C[C@@H]2C(=O)O)cc1` [Example 47] was tested. Which pEC50 did it give?
Answer: 6.72

Question: With `O=C(O)[C@H]1C[C@@H]1c1ccc(O[C@@H]2CCc3c(-c4cccc5ncccc45)ccc(F)c32)cc1` [Example 48, (1S,2S)-2-(4-((1R)-7-fluoro-4-(quinolin-5-yl)-2,3-dihydro-1H-inden-1-yloxy)phenyl)cyclo-propanecarboxylic acid] as the compound, how does the pEC50 read?
Answer: 8.22

Question: `O=C(O)[C@H]1C[C@@H]1c1ccc(O[C@@H]2CCc3c(-c4cccc5cnccc45)ccc(F)c32)cc1` [Example 49, (1S,2S)-2-(4-((1R)-7-fluoro-4-(isoquinolin-5-yl)-2,3-dihydro-1H-inden-1-yloxy)phenyl)cyclo-propanecarboxylic acid] was tested. Which pEC50 did it give?
Answer: 8.30

Question: With `O=C(O)[C@H]1C[C@@H]1c1ccc(O[C@@H]2CCc3c(-c4ccnc5ccccc45)ccc(F)c32)cc1` [Example 50] as the compound, how does the pEC50 read?
Answer: 7.96

Question: How did the pEC50 turn out when `COc1cccnc1-c1ccc(F)c2c1CC[C@H]2Oc1ccc([C@H]2C[C@@H]2C(=O)O)cc1` [Example 51] was run?
Answer: 6.24

Question: With `O=C(O)[C@H]1C[C@@H]1c1ccc(O[C@@H]2CCc3c(-c4ccncc4C(F)(F)F)ccc(F)c32)cc1` [Example 52, (1S,2S)-2-(4-((1R)-7-fluoro-4-(3-(trifluoromethyl)pyridin-4-yl)-2,3-dihydro-1H-inden-1-yloxy)phenyl)cyclopropanecarb oxylic acid] as the compound, how does the pEC50 read?
Answer: 7.42

Question: With `Cn1ccc2c(-c3ccc(F)c4c3CC[C@H]4Oc3ccc([C@H]4C[C@@H]4C(=O)O)cc3)cccc21` [Example 53] as the compound, how does the pEC50 read?
Answer: 7.89

Question: With `Cc1c(C#N)cccc1-c1ccc(F)c2c1CC[C@H]2Oc1ccc([C@H]2C[C@@H]2C(=O)O)cc1` [Example 54] as the compound, how does the pEC50 read?
Answer: 8.30

Question: `N#Cc1ncccc1-c1ccc(F)c2c1CC[C@H]2Oc1ccc([C@H]2C[C@@H]2C(=O)O)cc1` [Example 55] was tested. Which pEC50 did it give?
Answer: 7.12

Question: `Cc1nn(C)cc1-c1ccc(F)c2c1CC[C@H]2Oc1ccc([C@H]2C[C@@H]2C(=O)O)cc1` [Example 56, (1S,2S)-2-(4-((1R)-4-(1,3-dimethyl-1H-pyrazol-4-yl)-7-fluoro-2,3-dihydro-1H-inden-1-yloxy)phenyl)cyclopropanecarb oxylic acid] was tested. Which pEC50 did it give?
Answer: 6.65

Question: How did the pEC50 turn out when `Cc1ncc(-c2ccc(F)c3c2CC[C@H]3Oc2ccc([C@H]3C[C@@H]3C(=O)O)cc2)n1C` [Example 57, (1S,2S)-2-(4-((1R)-4-(1,2-dimethyl-1H-imidazol-5-yl)-7-fluoro-2,3-dihydro-1H-inden-1-yloxy)phenyl)cyclopropanecarb oxylic acid] was run?
Answer: 5.86

Question: `Cc1ccc2c(cnn2C)c1-c1ccc(F)c2c1CC[C@H]2Oc1ccc([C@H]2C[C@@H]2C(=O)O)cc1` [Example 58, (1S,2S)-2-(4-((1R)-4-(1,5-dimethyl-1H-indazol-4-yl)-7-fluoro-2,3-dihydro-1H-inden-1-yloxy)phenyl)cyclopropanecarb oxylic acid] was tested. Which pEC50 did it give?
Answer: 8.40

Question: `Cn1ncc2c(-c3ccc(F)c4c3CC[C@H]4Oc3ccc([C@H]4C[C@@H]4C(=O)O)cc3)cccc21` [Example 59] was tested. Which pEC50 did it give?
Answer: 7.77

Question: `Cn1ccc2cccc(-c3ccc(F)c4c3CC[C@H]4Oc3ccc([C@H]4C[C@@H]4C(=O)O)cc3)c21` [Example 60] was tested. Which pEC50 did it give?
Answer: 8.52

Question: With `O=C(O)[C@H]1C[C@@H]1c1ccc(O[C@@H]2CCc3c(-c4ccccc4-c4cocn4)ccc(F)c32)cc1` [Example 61, (1S,2S)-2-(4-((1R)-7-fluoro-4-(2-(oxazol-4-yl)phenyl)-2,3-dihydro-1H-inden-1-yloxy)-phenyl)cyclopropanecarboxylic acid] as the compound, how does the pEC50 read?
Answer: 7.55

Question: `O=C(O)[C@H]1C[C@@H]1c1ccc(O[C@@H]2CCc3c(-c4ccccc4-c4cnco4)ccc(F)c32)cc1` [Example 62] was tested. Which pEC50 did it give?
Answer: 7.54

Question: With `O=C(O)C1CC1c1ccc(OC2CCc3c2ccc(C(F)(F)F)c3-c2ccc(OCC3(O)CCOCC3)cc2)cc1` (stereo not drawn) [Example 63] as the compound, how does the pEC50 read?
Answer: 8.15

Question: `Cc1nc(-c2ccc(-c3c(C(F)(F)F)ccc4c3CC[C@H]4Oc3ccc([C@H]4C[C@@H]4C(=O)O)cc3)cc2)no1` [Example 64, (1S,2S)-2-(4-{(R)-4-[4-(5-Methyl-[1,2,4}oxadiazol-3-yl)-phenyl]-5-trifluoromethyl-indan-1-yloxy}-phenyl)-cyclopropanecarboxylic acid] was tested. Which pEC50 did it give?
Answer: 8.52
